# Values quoted from earlier work in patent US10709751B2, “Chardonnay grape seed extract” (SHAKLEE CORPORATION, priority 2014, dated 2020).
# How the values were obtained:
# [1] = laboratory studies
# neurons = conditions: laboratory studies
Compound,crossing of the blood-brain barrier [1],growth and development of neurons (neurons)
COc1cc(/C=C/c2ccc(O)cc2)cc(OC)c1 [pterostilbene],cross the blood-brain barrier,–
Oc1cc(O)c2c(c1)O[C@H](c1ccc(O)c(O)c1)[C@H](O)C2 [epicatechin],cross the blood-brain barrier,–
chlorogenic acids,–,stimulate growth and development of neurons
